Assay results published in US20090326053A1, “DIAGNOSTIC USES OF FOLLISTATIN-LIKE 1” (TRUSTEES OF BOSTON UNIVERSITY, priority 2008, published 2009).

Experiments:
[1] = test system: neonatal rat ventricular myocytes (NRVMs); assay: TUNEL staining of NRVMs after hypoxia/reoxygenation (H/R); assay type: cell-based; conditions: inhibitor 10 μmol/L, 3 hours prior to H/R; P<0.05
Protocol: (§1) Myocyte cultures. Primary cultures of neonatal rat ventricular myocytes (NRVCs) were prepared and incubated in Dulbecco's modified Eagle's medium (DMEM) supplemented with 7% Fetal Calf Serum (FCS)^42. Eighteen to 24 hours after preparation, cells were transfected with adenoviral vector at a multiplicity of infection (MOI) of 50 in DMEM without serum for 16 hours and incubated in DMEM without serum for more than 12 hours. Hypoxic conditions were generated using a GasPak system (Becton Dickinson) as described previously. For hypoxia/reoxygenation studies, cells were exposed 12 hr hypoxia followed by 24 hr reoxygenation.
TUNEL staining. TUNEL staining for cultured cardiac myocytes was performed using the In Situ Cell Death detection kit (Roche) as described previously^2 with some modifications. In brief, cells are fixed by 4% paraformaldehyde in PBS, permeabilized with 0.1% Triton X-100 and incubated with anti-sarcomeric actinin antibody for 60 min followed by incubation with Cy3-conjugated anti-mouse IgG antibody. Cells were then incubated with TUNEL staining solution for 1 hr according to the manufacture's protocol. DAPI was used for nuclear staining. […] TUNEL positive myocytes were counted in randomly selected three fields of the slide and the experiments were repeated three times in duplicates.

[2] = test system: neonatal rat ventricular myocytes (NRVMs); assay: Nucleosome fragmentation ELISA in NRVMs; assay type: cell-based; conditions: inhibitor 10 μmol/L, 3 hours prior to H/R
Protocol: as §1
Detection of nucleosome fragmentation by ELISA. Nucleosome fragmentation was assessed by ELISA using Cell Death Detection kit (Roche) according to the manufacture's protocol. Cardiac myocytes were seeded in 96-well plates, transfected with adenoviral vector and exposed to H/R. In one assay, 8 wells are used for one group and assays are repeated three times. The extent of nucleosome fragmentation of each group was expressed as relative value in comparison with the value of control group (Ad-βgal transfected cells without H/R).

N#CC(=C(/N)Sc1ccccc1N)/C(C#N)=C(\N)Sc1ccccc1N [U0126]
protective action of Ad-Fstl1 on TUNEL positive cells after pre-incubation with inhibitor [1]: partially attenuated
inhibitory effect of Fstl1 on nucleosome fragmentation after treatment with inhibitor [2]: significantly attenuated
